Measured values as given in patent publication US20110293511A1, “SPECIFIC BINDING PROTEINS AND USES THEREOF” (priority 2009, published 2011).

Tested on: A431 xenografts
Experiment: s.c. xenograft therapy study
Format: in vivo, nude mice
Settings: preventative model; 0.1 mg mAb806; 400 μg AG1478
Description: Tumor cells (3×10^6) in […] of PBS were inoculated subcutaneously into both flanks of 4-6 week old female nude mice (Animal Research Centre, Western Australia, Australia). […] Treatment was continued for a total of 6 doses, 3 times per week for 2 weeks. In the established model, treatment was started when tumors had reached a mean volume of 65±6.42 mm^3 (U87MG.Δ2-7), 84±9.07 mm3 (U87MG), 73±7.5 mm^3 (U87MG.wtEGFR) or 201±19.09 mm^3 (A431 tumors). Tumor volume in mm^3 was determined using the formula (length×width)/2, where length was the longest axis and width the measurement at right angles to the length (Clark et al. (2000) Therapeutic efficacy of anti-Lewis (y) humanized 3S 193 radioimmunotherapy in a breast cancer model: enhanced activity when combined with Taxol chemotherapy. Clin. Cancer Res. 6, 3621-3628). Data was expressed as mean tumor volume±S.E. for each treatment group. Statistical analysis was performed at given time points using Student's t-test. […]
To establish xenografts, mice were injected subcutaneously into the right and left inguinal mammary line with 1×10^6 A431 adenocarcinoma cells or 1×10^6 U87MG.de2-7 glioma cells in 100 μl of PBS. Tumor volume (TV) was calculated by the formula [(length×width)/2] where length was the longest axis and width the measurement at right angles to length. […]

COc1cc2ncnc(Nc3cccc(Cl)c3)c2cc1OC [AG1478, 4-(3-Chloroanilino)-6,7-dimethoxyquinazoline, reference compound]
reduction of tumor volume: significant reduction of tumor volume
